Laboratory results taken from patent publication US20080113899A1, “Iron Supplement and Utilization of the Same” (GEKKEIKAN SAKE CO., LTD., priority 2004, published 2008).
Like-named read-outs stand apart in the source and are kept apart here. Marks after values point to notes of the source that are not given here. Non-standard residues stand in square brackets, D forms with d. Residues, ends and D or L forms follow the SMILES beside them. ξ: configuration not given here. ξOrn(N(OH)Ac) = CC(=O)N(O)CCCC(N)C(=O)O

Experiments:
[1] = Solubility of ferrichrysin in water compared with other iron compounds; conditions: for Precipitate: 0.1 g in 1 ml, 37° C., 90 min, centrifuged, visual
Procedure: The solubility of ferrichrysin was compared with the solubilities of other iron compounds. Water-soluble heme iron, ferric citrate and ferrichrysin which were used in Example 1 were used as iron compounds. 0.1 g of each of these iron compounds was dissolved in 1 ml of each buffer having a pH of 2 or 7, and then the solutions were incubated at 37° C. for 90 min. A glycine/hydrochloric acid buffer was used as the pH 2 buffer, and a phosphate buffer was used as the pH 7 buffer. The concentration of buffer agent(s) in each buffer was adjusted to 0.1 mol/l. After being incubated, each buffer was centrifuged to visually confirm the presence or absence of precipitate. Further, the iron concentration in the supernatant of each buffer was measured by atomic absorption.

[2] = system: SD male rats having iron deficiency anemia; test: Measurement of hemoglobin concentration in the blood; type: in vivo, rat; conditions: mean±SD of five rats
Text: The rats in the control group were fed iron-containing food 1 (ferric citrate) during the study.

[3] = system: SD male rats having iron deficiency anemia; conditions: rat, in vivo
Text: Fifteen four-week-old SD male rats were freely fed an iron-deficient food for 35 days to develop iron deficiency anemia with the average blood hemoglobin value reduced to 6.5 g/dl. Five four-week-old SD male rats as the control group were fed iron-containing food 1.
The weight gain in each group is the mean±standard deviation value of the five rats in the group.

[4] = system: SD male rats having iron deficiency anemia; test: Measurement of serum iron concentration; type: in vivo, rat; conditions: 3 weeks free feeding, food iron content 35 ppm; mean±SD of five rats
Procedure: Serum was prepared from the blood wholly exsanguinated from the rats of each group after the rats had been given their iron-containing food, so as to measure iron concentrations in the serums by a usual method.

[5] = for Proportion of the iron concentration after the reaction to the initial iron concentration (1 mg/ml): phytic acid, 37° C., 3 hr, filtrate, cut-off 10000
Procedure: (§1) Ferrichrysin was tested for its reactivity with tannic acid and phytic acid, the typical iron uptake inhibitor, so as to compare its reactivity with that of other iron compounds with these iron uptake inhibitor.
(§2) A 0.6% tannic acid solution and a 0.6% phytic acid solution were also prepared. The pH of each of these solutions was adjusted with hydrochloric acid or sodium hydroxide to 2.0, 4.0, 6.0 or 8.0.
(§3) The iron-compound solutions were mixed with each of the tannic acid and phytic acid solutions at a volume ratio of 1:9, and then the mixtures were incubated at 37° C. for 3 hr, so as to react the iron compounds with each of these iron uptake inhibitor. The resulting solutions were centrifuged at 15000 rpm for 5 min, and then the supernatant of each solution was ultrafiltrated using membranes having a molecular weight cut-off of 10000. The iron concentration in each filtrate was measured by atomic absorption.

[6] = system: SD male rats having iron deficiency anemia; test: Measurement of iron concentration in the liver; type: in vivo, rat; conditions: 3 weeks free feeding, food iron content 35 ppm; mean±SD of five rats
Procedure: Rats of the control group were fed food 1 (ferric citrate) from the beginning, i.e. through to the end. At the end of the experiment, livers were removed after perfusion of saline into the portal vein to exclude the blood; they were weighed and freeze-dried. The dried liver was subsequently incinerated and subjected to atomic absorption, so as to measure the iron concentration in the liver. Further, the water content of the liver was calculated, and the concentration of iron stored in the liver of the body was determined based on the iron concentration in the dried liver and the water content of the liver.

[7] = system: SD male rats having iron deficiency anemia; conditions: rat, in vivo; remark: listed apart in the source
Text: Five four-week-old SD male rats as the control group were fed iron-containing food 1.
The fifteen rats having iron deficiency anemia were subsequently divided into three groups, and were freely fed iron-containing foods 1, 2 and 3, respectively, for 3 weeks. As the iron source, iron-containing food 1 contains ferric citrate; iron-containing food 2 contains water-soluble heme iron; and iron-containing food 3 contains ferrichrysin.
Measurements were made by a usual method of the concentrations of protein, ALT (alanine aminotransferase), AST (aspartate aminotransferase) and creatinine in the serums of the groups of rats which were fed iron-containing food 1 (ferric citrate), food 2 (heme iron) and food 3 (ferrichrysin) after the development of iron deficiency anemia, as well as the rats in the control group which were fed food 1 (ferric citrate) from the beginning.

[8] = for Proportion of the iron concentration after the reaction to the initial iron concentration (1 mg/ml): tannic acid, 37° C., 3 hr, filtrate, cut-off 10000
Procedure: as §1, §2, §3

[9] = Thermal and pH stabilities of ferrichrysin (absorbance at 430 nm before/after sterilization); type: physicochemical; conditions: 0.25 mg/ml; for Absorbance at 430 nm after sterilization: 20 min, 120° C., 200 kPa
Procedure: Ferrichrysin is known to show an absorption maximum at 430 nm. Ferrichrysin was tested for pH and thermal stabilities utilizing this property.
Ferrichrysin prepared from a rice koji extract in the manner as described above was dissolved in ultrapure water to a concentration of 2.5 mg/ml. The resulting solution was subsequently diluted to give a ferrichrysin concentration of 0.25 mg/ml using each of the following buffers. A glycine-hydrochloric acid buffer was used for a pH 2 or pH 3 buffer; a acetate buffer was used for a pH 4 or pH 5 buffer; a phosphate buffer was used for a pH 6 or pH 7 buffer; a tris-hydrochloric acid buffer was used for a pH 8 buffer; and a glycine-sodium hydroxide buffer was used for a pH 9 or pH 10 buffer.
Each ferrichrysin solution was placed in a screw-cap test tube, and then the test tube was sealed. The solution was subsequently sterilized by a process of steaming under pressure for 20 min at a temperature of 120° C. and a pressure of 200 kPa. The absorbance of each solution at 430 nm was measured prior to and after the sterilization.

CC(=O)N([O-])CCCC1NC(=O)CNC(=O)C(CO)NC(=O)C(CO)NC(=O)C(CCCN([O-])C(C)=O)NC(=O)C(CCCN([O-])C(C)=O)NC1=O.[Fe+3] (stereo not drawn) [Ferrichrysin, ferrichrysin] (cyclo(G[ξOrn(N(OH)Ac)][ξOrn(N(OH)Ac)][ξOrn(N(OH)Ac)]SS); configuration not given here)
Water solubility, in words [1]: very high water solubility | Precipitate ([1]; pH 2.0): No | Precipitate ([1]; pH 7.0): No | Hemoglobin concentration in the blood, after feeding iron-containing food ([2]; 3 weeks free feeding, food iron content 35 ppm): 14.3 ± 0.3 g/dL | Hemoglobin concentration in the blood, before feeding iron-containing food ([2]; baseline after 35 days iron-deficient food): 6.4 ± 0.9 g/dL | Average food intake [3]: 366.3 g/3 weeks | Body weight gain [3]: 70.1 ± 8.3 g/3 weeks | Serum iron concentration after feeding iron-containing food [4]: 116.7 ± 24.1 µg/dL | Reactivity with iron-insolubilizing component, in words ([5]; pH 2): low reactivity | Proportion of the iron concentration after the reaction to the initial iron concentration (1 mg/ml) ([5]; pH 2.0): 85.7% | Proportion of the iron concentration after the reaction to the initial iron concentration (1 mg/ml) ([5]; pH 4.0): 100.6% | Proportion of the iron concentration after the reaction to the initial iron concentration (1 mg/ml) ([5]; pH 6.0): 101.8% | Proportion of the iron concentration after the reaction to the initial iron concentration (1 mg/ml) ([5]; pH 8.0): 100.3% | Iron concentration in the liver [6]: 39.3 ± 7.6 ppm | ALT [7]: 17.7 ± 2.3^a Karmen | AST [7]: 72.3 ± 3.2^b Karmen | Creatinine [7]: 0.63 ± 0.06 mg/dL | Serum protein [7]: 67.6 ± 4.1 mg/mL | Side effects on the body (liver and kidney function), in words [7]: no harmful side effects | Reactivity with iron-insolubilizing component, in words ([8]; pH 2): low reactivity | Proportion of the iron concentration after the reaction to the initial iron concentration (1 mg/ml) ([8]; pH 2.0): 80.5% | Proportion of the iron concentration after the reaction to the initial iron concentration (1 mg/ml) ([8]; pH 4.0): 71.8% | Proportion of the iron concentration after the reaction to the initial iron concentration (1 mg/ml) ([8]; pH 6.0): 76.1% | Proportion of the iron concentration after the reaction to the initial iron concentration (1 mg/ml) ([8]; pH 8.0): 81.9% | Absorbance at 430 nm before sterilization ([9]; pH 2.0): 0.709 | Absorbance at 430 nm after sterilization ([9]; pH 2.0): 0.366 | Absorbance at 430 nm before sterilization ([9]; pH 3.0): 0.742 | Absorbance at 430 nm after sterilization ([9]; pH 3.0): 0.721 | Absorbance at 430 nm before sterilization ([9]; pH 4.0): 0.738 | Absorbance at 430 nm after sterilization ([9]; pH 4.0): 0.743 | Absorbance at 430 nm before sterilization ([9]; pH 5.0): 0.732 | Absorbance at 430 nm after sterilization ([9]; pH 5.0): 0.748 | Absorbance at 430 nm before sterilization ([9]; pH 6.0): 0.743 | Absorbance at 430 nm after sterilization ([9]; pH 6.0): 0.746 | Absorbance at 430 nm before sterilization ([9]; pH 7.0): 0.764 | Absorbance at 430 nm after sterilization ([9]; pH 7.0): 0.774 | Absorbance at 430 nm before sterilization ([9]; pH 8.0): 0.758 | Absorbance at 430 nm after sterilization ([9]; pH 8.0): 0.747 | Absorbance at 430 nm before sterilization ([9]; pH 9.0): 0.765 | Absorbance at 430 nm after sterilization ([9]; pH 9.0): 0.767 | Absorbance at 430 nm before sterilization ([9]; pH 10.0): 0.769 | Absorbance at 430 nm after sterilization ([9]; pH 10.0): 0.772
